Results on 16 molecules are retold here after patent publication US20230093861A1, “RAPAMYCIN ANALOGS AS MTOR INHIBITORS” (Revolution Medicines, Inc., priority 2017, published 2023).

The test system of experiment [1] is P-4E-BP1 (T37/46). In words: Cell based AlphaLISA assay, inhibition of P-4E-BP1 (T37/46) (mTORC1 substrate phosphorylation) in MDA-MB-468 cells. The following applies: Homo sapiens, MDA-MB-468, 4 h, AlphaLISA, two to four hours at 37° C., read-out: pIC50 for Inhibition of mTORC1 and mTORC2 Substrate Phosphorylation, P-4E-BP1-(T37/46) (converted). The method in brief: (§1)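 AlphaLISA SureFire Ultra detection of phosphorylated substrate in lysed cells; duplicate Alpha reads; control-normalized IC50 fitting.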
(Alpha assays give light when donor and acceptor beads are brought close together.)

Experiment [2] relates to P-P70S6K (T389). Briefly: Cell based AlphaLISA assay, inhibition of P-P70S6K (T389) (mTORC1 substrate phosphorylation) in MDA-MB-468 cells. The following applies: Homo sapiens, 4 h, AlphaLISA, two to four hours at 37° C., read-out: pIC50 for Inhibition of mTORC1 and mTORC2 Substrate Phosphorylation, P-P70S6K-(T389) (converted). The method in brief: as §1
Experiment [3] deals with P-Akt (S473). Briefly: Cell based AlphaLISA assay, inhibition of P-Akt (S473) (mTORC2 substrate phosphorylation) in MDA-MB-468 cells. The following applies: Homo sapiens, MDA-MB-468, 4 h, AlphaLISA, two to four hours at 37° C., read-out: pIC50 for Inhibition of mTORC1 and mTORC2 Substrate Phosphorylation, p-AKT 1/2/3 -(S473) (converted). In a few lines:
as §1

The structures appear in SMILES notation.

`CO[C@H]1C[C@@H]2CC[C@@H](C)[C@@](O)(O2)C(=O)C(=O)N2CCCC[C@H]2C(=O)O[C@H]([C@H](C)C[C@@H]2CC[C@@H](O)[C@H](OC)C2)C[C@@H](OC)[C@H](C)/C=C(\C)[C@@H](O)[C@@H](OC)C(=NOCc2cn(CCOCCOCCOCCOCCOCCNC(=O)CCC(=O)NCCCCn3nc(-c4ccc5oc(N)nc5c4)c4c(N)ncnc43)nn2)[C@H](C)C[C@H](C)/C=C/C=C/C=C/1C` [Example 105]: the IC50 was 3.16 to 31.6 nM in experiment [1], 1 to 10 nM in experiment [2] and 31.6 to 1000 nM in experiment [3].

In the case of `COc1cccc2cc(-c3nc([C@H]4CC[C@H](C(=O)NCCOCCOCCOCCOCCOCCOCCn5cc(CCCCO[C@@H]6CC[C@@H](C[C@@H](C)[C@@H]7CC(=O)[C@H](C)/C=C(\C)[C@@H](O)[C@@H](OC)C(=O)[C@H](C)C[C@H](C)/C=C/C=C/C=C(\C)[C@@H](OC)C[C@@H]8CC[C@@H](C)[C@@](O)(O8)C(=O)C(=O)N8CCCC[C@H]8C(=O)O7)C[C@H]6OC)nn5)CC4)n4ncnc(N)c34)[nH]c12` [Example 106], the results for the IC50 in experiment [1], in experiment [2] and in experiment [3] were less than 3.16 nM, less than 1 nM and 3.16 to 31.6 nM, respectively.

Consider `CO[C@H]1C[C@@H]2CC[C@@H](C)[C@@](O)(O2)C(=O)C(=O)N2CCCC[C@H]2C(=O)O[C@H]([C@H](C)C[C@@H]2CC[C@@H](OCCCCc3cn(CCOCCOCCOCCOCCOCCOCCOCCOCCNC(=O)c4ccc(-c5ccc6c(N7CCOC[C@H]7C)nc(N7CCOC[C@H]7C)nc6n5)cc4)nn3)[C@H](OC)C2)CC(=O)[C@H](C)/C=C(\C)[C@@H](O)[C@@H](OC)C(=O)[C@H](C)C[C@H](C)/C=C/C=C/C=C/1C` [Example 107], for which the IC50 is less than 3.16 nM in experiment [1], less than 1 nM in experiment [2] and less than 3.16 nM in experiment [3].

`COc1cccc2cc(-c3nc([C@H]4CC[C@H](C(=O)NCCOCCOCCOCCOCCOCCOCCOCCOCCn5cc(CCCCO[C@@H]6CC[C@@H](C[C@@H](C)[C@@H]7CC(=O)[C@H](C)/C=C(\C)[C@@H](O)[C@@H](OC)C(=O)[C@H](C)C[C@H](C)/C=C/C=C/C=C(\C)[C@@H](OC)C[C@@H]8CC[C@@H](C)[C@@](O)(O8)C(=O)C(=O)N8CCCC[C@H]8C(=O)O7)C[C@H]6OC)nn5)CC4)n4ncnc(N)c34)[nH]c12` [Example 108]: the figures for the IC50 in experiment [1], in experiment [2] and in experiment [3] were less than 3.16 nM, less than 1 nM and 3.16 to 31.6 nM, respectively.

Consider `CO[C@H]1C[C@@H]2CC[C@@H](C)[C@@](O)(O2)C(=O)C(=O)N2CCCC[C@H]2C(=O)O[C@H]([C@H](C)C[C@@H]2CC[C@H](n3cc(-c4cnc(N5CCN(c6ncc(C(=O)NCCOCCC(=O)NCCCCn7nc(-c8ccc9oc(N)nc9c8)c8c(N)ncnc87)cn6)CC5)nc4)nn3)[C@H](OC)C2)CC(=O)[C@H](C)/C=C(\C)[C@@H](O)[C@@H](OC)C(=O)[C@H](C)C[C@H](C)/C=C/C=C/C=C/1C` [Example 109], for which the IC50 in experiment [1] was greater than 1000 nM; in experiment [2] it was less than 1 nM; in experiment [3], greater than 1000 nM.

`CO[C@H]1C[C@@H]2CC[C@@H](C)[C@@](O)(O2)C(=O)C(=O)N2CCCC[C@H]2C(=O)O[C@H]([C@H](C)C[C@@H]2CC[C@H](n3cc(-c4cnc(N5CCN(c6ncc(C(=O)NCCOCCC(=O)NCCCCn7nc(-c8cc9cc(O)ccc9[nH]8)c8c(N)ncnc87)cn6)CC5)nc4)nn3)[C@H](OC)C2)CC(=O)[C@H](C)/C=C(\C)[C@@H](O)[C@@H](OC)C(=O)[C@H](C)C[C@H](C)/C=C/C=C/C=C/1C` [Example 110]: the IC50 was 31.6 to 1000 nM in experiment [1], less than 1 nM in experiment [2] and greater than 1000 nM in experiment [3].

As for `CO[C@H]1C[C@@H]2CC[C@@H](C)[C@@](O)(O2)C(=O)C(=O)N2CCCC[C@H]2C(=O)O[C@H]([C@H](C)C[C@@H]2CC[C@H](n3cc(-c4cnc(N5CCN(c6ncc(C(=O)NCCOCCOCCC(=O)NCCCCn7nc(-c8ccc9oc(N)nc9c8)c8c(N)ncnc87)cn6)CC5)nc4)nn3)[C@H](OC)C2)CC(=O)[C@H](C)/C=C(\C)[C@@H](O)[C@@H](OC)C(=O)[C@H](C)C[C@H](C)/C=C/C=C/C=C/1C` [Example 111], the IC50 in experiment [1] is 31.6 to 1000 nM; in experiment [2] it was less than 1 nM; in experiment [3] it was 31.6 to 1000 nM.

Consider `CO[C@H]1C[C@@H]2CC[C@@H](C)[C@@](O)(O2)C(=O)C(=O)N2CCCC[C@H]2C(=O)O[C@H]([C@H](C)C[C@@H]2CC[C@H](n3cc(-c4cnc(N5CCN(c6ncc(C(=O)NCCOCCOCCC(=O)NCCCCn7nc(-c8cc9cc(O)ccc9[nH]8)c8c(N)ncnc87)cn6)CC5)nc4)nn3)[C@H](OC)C2)CC(=O)[C@H](C)/C=C(\C)[C@@H](O)[C@@H](OC)C(=O)[C@H](C)C[C@H](C)/C=C/C=C/C=C/1C` [Example 112], for which the IC50 in experiment [1] is greater than 1000 nM; in experiment [2] it was less than 1 nM; in experiment [3], greater than 1000 nM.

On to `CO[C@H]1C[C@@H]2CC[C@@H](C)[C@@](O)(O2)C(=O)C(=O)N2CCCC[C@H]2C(=O)O[C@H]([C@H](C)C[C@@H]2CC[C@H](n3cc(-c4cnc(N5CCN(c6ncc(C(=O)NCCOCCOCCOCCC(=O)NCCCCn7nc(-c8ccc9oc(N)nc9c8)c8c(N)ncnc87)cn6)CC5)nc4)nn3)[C@H](OC)C2)CC(=O)[C@H](C)/C=C(\C)[C@@H](O)[C@@H](OC)C(=O)[C@H](C)C[C@H](C)/C=C/C=C/C=C/1C` [Example 113], for which the IC50 in experiment [1] is less than 3.16 nM; in experiment [2] it was less than 1 nM; in experiment [3], 3.16 to 31.6 nM.

As to `CO[C@H]1C[C@@H]2CC[C@@H](C)[C@@](O)(O2)C(=O)C(=O)N2CCCC[C@H]2C(=O)O[C@H]([C@H](C)C[C@@H]2CC[C@H](n3cc(-c4cnc(N5CCN(c6ncc(C(=O)NCCOCCOCCOCCC(=O)NCCCCn7nc(-c8cc9cc(O)ccc9[nH]8)c8c(N)ncnc87)cn6)CC5)nc4)nn3)[C@H](OC)C2)CC(=O)[C@H](C)/C=C(\C)[C@@H](O)[C@@H](OC)C(=O)[C@H](C)C[C@H](C)/C=C/C=C/C=C/1C` [Example 114], the IC50 was greater than 1000 nM in experiment [1], less than 1 nM in experiment [2] and greater than 1000 nM in experiment [3].

Consider `CO[C@H]1C[C@@H]2CC[C@@H](C)[C@@](O)(O2)C(=O)C(=O)N2CCCC[C@H]2C(=O)O[C@H]([C@H](C)C[C@@H]2CC[C@H](n3cc(-c4cnc(N5CCN(c6ncc(C(=O)NCCOCCOCCOCCOCCC(=O)NCCCCn7nc(-c8ccc9oc(N)nc9c8)c8c(N)ncnc87)cn6)CC5)nc4)nn3)[C@H](OC)C2)CC(=O)[C@H](C)/C=C(\C)[C@@H](O)[C@@H](OC)C(=O)[C@H](C)C[C@H](C)/C=C/C=C/C=C/1C` [Example 115], for which the IC50 in experiment [1] was less than 3.16 nM; in experiment [2] it was less than 1 nM; in experiment [3] it was less than 3.16 nM.

`CO[C@H]1C[C@@H]2CC[C@@H](C)[C@@](O)(O2)C(=O)C(=O)N2CCCC[C@H]2C(=O)O[C@H]([C@H](C)C[C@@H]2CC[C@H](n3cc(-c4cnc(N5CCN(c6ncc(C(=O)NCCOCCOCCOCCOCCC(=O)NCCCCn7nc(-c8cc9cc(O)ccc9[nH]8)c8c(N)ncnc87)cn6)CC5)nc4)nn3)[C@H](OC)C2)CC(=O)[C@H](C)/C=C(\C)[C@@H](O)[C@@H](OC)C(=O)[C@H](C)C[C@H](C)/C=C/C=C/C=C/1C` [Example 116]: the figures for the IC50 in experiment [1], in experiment [2] and in experiment [3] were 3.16 to 31.6 nM, less than 1 nM and greater than 1000 nM, respectively.

Regarding `CO[C@H]1C[C@@H]2CC[C@@H](C)[C@@](O)(O2)C(=O)C(=O)N2CCCC[C@H]2C(=O)O[C@H]([C@H](C)C[C@@H]2CC[C@H](n3cc(-c4cnc(N5CCN(c6ncc(C(=O)NCCOCCOCCOCCOCCC(=O)N7CCc8cc(Cn9nc(-c%10ccc%11oc(N)nc%11c%10)c%10c(N)ncnc%109)ccc8C7)cn6)CC5)nc4)nn3)[C@H](OC)C2)CC(=O)[C@H](C)/C=C(\C)[C@@H](O)[C@@H](OC)C(=O)[C@H](C)C[C@H](C)/C=C/C=C/C=C/1C` [Example 117], the IC50 was greater than 1000 nM in experiment [1], less than 1 nM in experiment [2] and greater than 1000 nM in experiment [3].

For `CO[C@H]1C[C@@H]2CC[C@@H](C)[C@@](O)(O2)C(=O)C(=O)N2CCCC[C@H]2C(=O)O[C@H]([C@H](C)C[C@@H]2CC[C@H](n3cc(-c4cnc(N5CCN(c6ncc(C(=O)NCCOCCOCCOCCOCCOCCC(=O)NCCCCn7nc(-c8ccc9oc(N)nc9c8)c8c(N)ncnc87)cn6)CC5)nc4)nn3)[C@H](OC)C2)CC(=O)[C@H](C)/C=C(\C)[C@@H](O)[C@@H](OC)C(=O)[C@H](C)C[C@H](C)/C=C/C=C/C=C/1C` [Example 118], the IC50 in experiment [1] was less than 3.16 nM; in experiment [2], less than 1 nM; in experiment [3], 3.16 to 31.6 nM.

On to `CO[C@H]1C[C@@H]2CC[C@@H](C)[C@@](O)(O2)C(=O)C(=O)N2CCCC[C@H]2C(=O)O[C@H]([C@H](C)C[C@@H]2CC[C@H](n3cc(-c4cnc(N5CCN(c6ncc(C(=O)NCCOCCOCCOCCOCCOCCC(=O)NCCCCn7nc(-c8cc9cc(O)ccc9[nH]8)c8c(N)ncnc87)cn6)CC5)nc4)nn3)[C@H](OC)C2)CC(=O)[C@H](C)/C=C(\C)[C@@H](O)[C@@H](OC)C(=O)[C@H](C)C[C@H](C)/C=C/C=C/C=C/1C` [Example 119], for which the IC50 in experiment [1] was greater than 1000 nM; in experiment [2], less than 1 nM; in experiment [3], greater than 1000 nM.

As to `CO[C@H]1C[C@@H]2CC[C@@H](C)[C@@](O)(O2)C(=O)C(=O)N2CCCC[C@H]2C(=O)O[C@H]([C@H](C)C[C@@H]2CC[C@H](n3cc(COC(=O)NCCOCCOCCOCCC(=O)NCCOCCOCCC(=O)NCCCCn4nc(-c5ccc6oc(N)nc6c5)c5c(N)ncnc54)nn3)[C@H](OC)C2)CC(=O)[C@H](C)/C=C(\C)[C@@H](O)[C@@H](OC)C(=O)[C@H](C)C[C@H](C)/C=C/C=C/C=C/1C` [Example 120], the IC50 in experiment [1] is 3.16 to 31.6 nM; in experiment [2], 1 to 10 nM; in experiment [3], 31.6 to 1000 nM.
